The test deals with primary normal human dermal fibroblasts (NHDF). Briefly: Energy production (metabolic activity) by alamarBlue REDOX indicator fluorescence. To be noted: NHDF in DMEM prepared with Evian mineral water; 10 mM of each agent; 3-hour incubation, then alamarBlue 1 hour; fluorescence ex 530 nm/em 590 nm; n=8. In kind it is cell-based. The protocol: The effects of L-carnitine and sodium pyruvate, in mineral water, on energy production were evaluated in primary normal human dermal fibroblasts (adult). Energy production in the cell is assessed using the REDOX sensitive indicator alamarBlue™ (Alamar Biosciences, Sacramento, Calif.). The native, oxidized form of alamarBlue™ is taken up readily by cells and reduced intracellularly by the mitochondrial electron transport chain, resulting in a shift in its absorbance and fluorescence. Normal human dermal fibroblasts (NHDF), obtained from Clonetics (Biowhittaker Inc., Walkersville, Md.), were cultured in Clonetics FGM2 medium and grown to confluence in 96-well plates (Costar, Cambridge, Mass.). Culture medium was then replaced with DMEM (Life Technologies, Rockville, Md.) prepared with Evian® mineral water. After 72 hours cells were treated with 10 mM L-carnitine (Biosint USA, Larchmont, N.Y.), 10 mM sodium pyruvate (American International Chemical Inc., Natick, Mass.) or 10 mM L-carnitine in combination with 10 mM sodium pyruvate. At the end of a 3-hour incubation period, alamarBlue™ was added to each well and the plates returned to the incubator. After 1 hour the fluorescence was measured using a CytoFluor® Fluorescence Plate Reader (PerSeptive Biosystems, Framingham, Mass.) set with the following filter-combination: excitation at 530 nm and emission at 590 nm.

Each structure is given as a SMILES string.

On to `C[N+](C)(C)C[C@H](O)CC(=O)[O-]` [carntine, L-carnitine], for which the “increase in metabolic activity” value amounted to 6.05%.

`CC(=O)C(=O)[O-].[Na+]` [sodium pyruvate]: the “increase in metabolic activity” value is listed as 2.16%.

The values above are taken from patent publication US6372791B1, “Method of promoting skin cell metabolism” (Johnson & Johnson Consumer Companies, Inc., priority 2000, dated 2002).
